Measured values taken from US8575158B2, “1-phenyl-substituted heterocyclyl derivatives and their use as prostaglandin D2 receptor modulators” (Actelion Pharmaceuticals Ltd., priority 2010, dated 2013).
pIC50: −log10 of the molar value.

Target: T1, hCRTH2 receptor (Homo sapiens, UniProt Q9Y5Y4)
T1 construct: expressed in transfected cells; host or cells: HEK293
T1 sequence (Q9Y5Y4 1-395): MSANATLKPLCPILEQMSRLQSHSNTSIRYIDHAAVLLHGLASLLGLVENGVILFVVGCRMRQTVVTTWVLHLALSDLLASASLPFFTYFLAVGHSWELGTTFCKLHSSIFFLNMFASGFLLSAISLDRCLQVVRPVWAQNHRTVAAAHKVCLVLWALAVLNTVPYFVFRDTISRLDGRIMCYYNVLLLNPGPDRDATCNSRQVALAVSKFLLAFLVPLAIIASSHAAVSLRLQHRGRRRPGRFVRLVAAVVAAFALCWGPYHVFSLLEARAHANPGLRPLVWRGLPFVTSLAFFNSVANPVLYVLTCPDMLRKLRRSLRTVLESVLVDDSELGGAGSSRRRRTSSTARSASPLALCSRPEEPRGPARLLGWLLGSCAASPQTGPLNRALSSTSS
Experiment: Radioligand displacement assay (3H-PGD2) on hCRTH2 receptor membranes
Format: binding
Conditions: antagonistic activity, 3H-PGD2 radioligand displacement, HEK293-hCRTH2 membranes

Row | SMILES | pIC50
1 | O=C(O)COc1ccc(Cl)cc1C1c2ccccc2CN1C(=O)NCc1ccccc1Cl (racemic) [Example 557] | 7.86
2 | O=C(O)COc1ccc(Cl)cc1C1c2ccccc2CCN1C(=O)[C@@H]1C[C@H]1c1ccc(C(F)(F)F)cc1 (mixture of isomers) [Example 419] | 6.02
3 | Cc1nn(CCC(=O)N2Cc3ccccc3C2c2cc(Cl)ccc2OCC(=O)O)c2c(F)cccc12 (single isomer, unassigned) [Example 530] | 7.00
4 | Cc1ccccc1CCC(=O)N1Cc2ccccc2C1c1cc(Cl)ccc1OCC(=O)O (racemic) [Example 506] | 7.10
5 | O=C(O)COc1ccc(Cl)cc1C1c2ccccc2CN1C(=O)CCOc1cccc(F)c1 (racemic) [Example 517] | 6.91
6 | O=C(O)COc1ccc(Cl)cc1[C@@H]1c2ccc(F)cc2CCN1C(=O)OCCc1ccccc1 [Example 335, (S)-1-(2-Carboxymethoxy-5-chloro-phenyl)-6-fluoro-3,4-dihydro-1H-isoquinoline-2-carboxylic acid phenethyl ester] | 7.88

Results, then the compound that gave them:

Row | pIC50 | SMILES
7 | 7.11 | Cc1nn(CCC(=O)N2Cc3ccccc3C2c2cc(Cl)ccc2OCC(=O)O)c2cccc(Cl)c12 (single isomer, unassigned) [Example 529]
8 | 6.06 | Cc1nn(CCC(=O)N2Cc3ccccc3C2c2cc(Cl)ccc2OCC(=O)O)c2cc(F)ccc12 (single isomer, unassigned) [Example 541, (4-Chloro-2-{2-[3-(6-fluoro-3-methyl-indazol-1-yl)-propionyl]-2,3-dihydro-1H-isoindol-1-yl}-phenoxy)-acetic acid]
9 | 7.83 | COc1ccc2[nH]cc(CCC(=O)N3Cc4ccccc4C3c3cc(Cl)ccc3OCC(=O)O)c2c1 (racemic) [Example 511]
10 | 7.83 | Cc1ccc2ccn(CCC(=O)N3CCc4ccccc4C3c3cc(Cl)ccc3OCC(=O)O)c2c1 (racemic) [Example 384]
11 | 6.79 | COc1ccc(OCC(=O)N2CCc3ccccc3C2c2cc(Cl)ccc2OCC(=O)O)c(OC)n1 (racemic) [Example 476]
12 | 9.39 | Cc1cc(COC(=O)N2CCc3ccccc3[C@H]2c2cc(Cl)ccc2OCC(=O)O)n(C)n1 [Example 288, (S)-1-(2-Carboxymethoxy-5-chloro-phenyl)-3,4-dihydro-1H-isoquinoline-2-carboxylic acid 2,5-dimethyl-2H-pyrazol-3-ylmethyl ester]
13 | 6.39 | CC(C)COCCC(=O)N1CCc2ccccc2C1c1cc(Cl)ccc1OCC(=O)O (racemic) [Example 450]
14 | 7.32 | COc1ccc2c(c1)c(CCC(=O)N1CCc3ccccc3C1c1cc(Cl)ccc1OCC(=O)O)cn2C (racemic) [Example 458]
15 | 6.70 | Cc1cncc(OCC(=O)N2CCc3ccccc3C2c2cc(Cl)ccc2OCC(=O)O)c1 (racemic) [Example 474]
16 | 7.49 | COc1cc(OC)c2ccn(CCC(=O)N3CCc4ccccc4C3c3cc(Cl)ccc3OCC(=O)O)c2n1 (racemic) [Example 376]
17 | 7.57 | COc1ccccc1OCC(=O)N1CCc2ccccc2C1c1cc(Cl)ccc1OCC(=O)O (racemic) [Example 406]
18 | 6.18 | O=C(O)COc1ccc(Cl)cc1C1c2ccccc2CCN1C(=O)CN1Cc2ccccc2C1 (racemic) [Example 444]
19 | 7.09 | COc1cc2c(ccn2CCC(=O)N2CCc3ccccc3C2c2cc(Cl)ccc2OCC(=O)O)cc1Cl (racemic) [Example 375]
20 | 6.51 | O=C(O)COc1ccc(Cl)cc1C1c2ccccc2CCN1C(=O)CCN1CCSC1=O (racemic) [Example 453]
21 | 6.74 | O=C(O)COc1ccc(Cl)cc1C1c2ccccc2CN1C(=O)CCn1ncc2ccc(Cl)cc21 (stereo not shown) [Example 549]

Same assay, conditions: antagonistic activity; 3H-PGD2 displacement on HEK293-hCRTH2 membrane fragments

Row | SMILES | pIC50
22 | COc1cc2c(cc1OC)C(c1cc(F)ccc1OCC(=O)O)N(C(=O)OCc1ccccc1)CC2 (racemic) [Example 36, (±)-1-(2-Carboxymethoxy-5-fluoro-phenyl)-6,7-dimethoxy-3,4-dihydro-1H-isoquinoline-2-carboxylic acid benzyl ester] | 7.24
23 | Cc1csc(COC(=O)N2CCc3ccccc3[C@H]2c2cc(Cl)ccc2OCC(=O)O)n1 [Example 276, (S)-1-(2-Carboxymethoxy-5-chloro-phenyl)-3,4-dihydro-1H-isoquinoline-2-carboxylic acid 4-methyl-thiazol-2-ylmethyl ester] | 8.74
24 | O=C(O)COc1ccc(F)cc1C1c2ccccc2CCN1C(=O)CN1Cc2ccccc2C1 (racemic) [Example 63, (±)-{2-[2-(2-1,3-Dihydro-isoindol-2-yl-acetyl)-1,2,3,4-tetrahydro-isoquinolin-1-yl]-4-fluoro-phenoxy}-acetic acid] | 6.06
25 | O=C(O)COc1ccc(F)cc1C1c2cc(F)c(F)cc2CCN1C(=O)OCc1ccccc1 (racemic) [Example 9, (±)-1-(2-Carboxymethoxy-5-fluoro-phenyl)-6,7-difluoro-3,4-dihydro-1H-isoquinoline-2-carboxylic acid benzyl ester] | 7.45
26 | O=C(O)COc1ccc(Cl)cc1C1c2cccc(F)c2CCN1C(=O)COCc1ccccc1Cl (racemic) [Example 120, (±)-(4-Chloro-2-{2-[2-(2-chloro-benzyloxy)-acetyl]-5-fluoro-1,2,3,4-tetrahydro-isoquinolin-1-yl}-phenoxy)-acetic acid] | 7.48
27 | Cc1noc(C)c1COC(=O)N1CCc2ccccc2[C@H]1c1cc(Cl)ccc1OCC(=O)O [Example 281, (S)-1-(2-Carboxymethoxy-5-chloro-phenyl)-3,4-dihydro-1H-isoquinoline-2-carboxylic acid 3,5-dimethyl-isoxazol-4-ylmethyl ester] | 8.32
28 | Cn1cc(CC(=O)N2CCc3ccccc3C2c2cc(F)ccc2OCC(=O)O)c2ccccc21 (racemic) [Example 137, (±)-(4-Fluoro-2-{2-[2-(1-methyl-1H-indol-3-yl)-acetyl]-1,2,3,4-tetrahydro-isoquinolin-1-yl}-phenoxy)-acetic acid] | 6.50
29 | O=C(O)COc1ccc(Cl)cc1C1c2ccccc2CN1C(=O)OCc1ccccc1 (stereo not shown) [Example 231, 1-(2-Carboxymethoxy-5-chloro-phenyl)-1,3-dihydro-isoindole-2-carboxylic acid benzyl ester] | 8.58
30 | N#Cc1ccc(OCC(=O)O)c(C2c3ccccc3CCN2C(=O)OCc2ccccc2)c1 (racemic) [Example 219, (±)-1-(2-Carboxymethoxy-5-cyano-phenyl)-3,4-dihydro-1H-isoquinoline-2-carboxylic acid benzyl ester] | 8.33
31 | O=C(O)COc1ccc(F)cc1C1c2cc(F)ccc2CCN1C(=O)OCc1ccccc1 (racemic) [Example 41, (±)-1-(2-Carboxymethoxy-5-fluoro-phenyl)-7-fluoro-3,4-dihydro-1H-isoquinoline-2-carboxylic acid benzyl ester] | 7.61
32 | NC(=O)c1ccc(OCC(=O)O)c(C2c3ccccc3CCN2C(=O)OCc2ccccc2)c1 (racemic) [Example 213, (±)-1-(5-Carbamoyl-2-carboxymethoxy-phenyl)-3,4-dihydro-1H-isoquinoline-2-carboxylic acid benzyl ester] | 6.46
33 | O=C(O)COc1ccc(F)cc1C1c2ccccc2CCN1C(=O)Cc1cccc2ccccc12 (racemic) [Example 47, (±)-{4-Fluoro-2-[2-(2-naphthalen-1-yl-acetyl)-1,2,3,4-tetrahydro-isoquinolin-1-yl]-phenoxy}-acetic acid] | 6.70

Now from value to compound:

Row | pIC50 | SMILES
34 | 7.42 | O=C(O)COc1ccc(Cl)cc1C1c2ccccc2CCN1C(=O)CCOc1ccc(Cl)cc1 (racemic) [Example 89, (±)-(4-Chloro-2-{2-[3-(4-chloro-phenoxy)-propionyl]-1,2,3,4-tetrahydro-isoquinolin-1-yl}-phenoxy)-acetic acid]
35 | 7.42 | O=C(O)COc1ccc(Cl)cc1C1c2ccccc2CCN1C(=O)[C@@H]1C[C@H]1c1ccc(Cl)cc1Cl (mixture of isomers) [Example 158]
36 | 6.57 | COc1ccc(CCC(=O)N2CCc3ccccc3C2c2cc(F)ccc2OCC(=O)O)cc1 (racemic) [Example 130, (±)-(4-Fluoro-2-{2-[3-(4-methoxy-phenyl)-propionyl]-1,2,3,4-tetrahydro-isoquinolin-1-yl}-phenoxy)-acetic acid]
37 | 6.84 | COc1ccc(COCC(=O)N2CCc3ccccc3C2c2cc(F)ccc2OCC(=O)O)cc1 (racemic) [Example 196]
38 | 8.41 | O=C(O)COc1ccc(Cl)cc1C1c2ccccc2CCN1C(=O)OCc1cccc(F)c1F (racemic) [Example 249]
39 | 8.12 | O=C(O)COc1ccc(Cl)cc1C1c2ccccc2CCN1C(=O)OCc1cc(F)ccc1F (racemic) [Example 258]
40 | 6.95 | O=C(O)COc1ccc(Cl)cc1C1c2ccccc2CCN1C(=O)Cc1c[nH]c2ccc(F)cc12 (racemic) [Example 91, (±)-(4-Chloro-2-{2-[2-(5-fluoro-1H-indol-3-yl)-acetyl]-1,2,3,4-tetrahydro-isoquinolin-1-yl}-phenoxy)-acetic acid]
41 | 7.49 | O=C(O)COc1ccc(F)cc1C1c2ccccc2CCN1C(=O)CCOc1ccccc1F (racemic) [Example 54]
42 | 7.48 | O=C(O)COc1ccc(F)cc1C1c2ccccc2CCN1C(=O)COCc1ccc(Cl)cc1 (racemic) [Example 191]

Same assay, conditions: radioligand displacement (3H-PGD2), hCRTH2 receptor membranes; antagonistic activity

Row | pIC50 | SMILES
43 | 7.82 | O=C(OCc1ccccc1)N1CCc2ccccc2C1c1cc(Cl)ccc1OCc1cc(O)no1 (racemic) [Example 573, (±)-1-[5-Chloro-2-(3-hydroxy-isoxazol-5-ylmethoxy)-phenyl]-3,4-dihydro-1H-isoquinoline-2-carboxylic acid benzyl ester]
